According to patent US5998654A, “Retinoic acid receptor antagonist compounds and methods” (Ligand Pharmaceuticals Incorporated, priority 1997, dated 1999):

Key:
RARβ = molecular target: T1, RARβ (Homo sapiens, UniProt P10826); experiment: RAR binding, RARβ; details: Kd from IC50 by Cheng-Prussof equation
T1 sequence (P10826 1-448 isoform P10826-2): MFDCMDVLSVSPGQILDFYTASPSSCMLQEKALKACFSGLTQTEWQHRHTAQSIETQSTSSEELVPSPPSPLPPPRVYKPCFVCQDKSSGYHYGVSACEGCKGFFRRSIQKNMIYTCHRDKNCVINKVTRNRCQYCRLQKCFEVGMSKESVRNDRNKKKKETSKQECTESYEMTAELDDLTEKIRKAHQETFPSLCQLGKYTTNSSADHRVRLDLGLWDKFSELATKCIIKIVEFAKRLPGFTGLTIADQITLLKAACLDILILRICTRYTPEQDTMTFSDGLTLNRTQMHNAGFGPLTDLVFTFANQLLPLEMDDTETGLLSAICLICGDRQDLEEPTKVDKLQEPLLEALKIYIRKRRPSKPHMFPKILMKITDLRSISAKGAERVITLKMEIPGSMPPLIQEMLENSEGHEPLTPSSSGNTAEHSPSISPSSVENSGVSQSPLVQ
Protocol: Non-specific binding was defined as that binding remaining in the presence of 500 nM of the appropriate unlabelled compound. At the end of the incubation period, bound from free ligand were separated. The amount of bound tritiated retinoids was determined by liquid scintillation counting of an aliquot (700 μL) of the supernatant fluid or the hydroxylapatite pellet.
After correcting for non-specific binding, IC50 values were determined. […] The IC50 value was determined graphically from a log-logit plot of the data. The Kd values were determined by application of the Cheng-Prussof equation to the IC50 values, the labeled ligand concentration and the Kd of the labeled ligand.

RARα = molecular target: T2, RARα (Homo sapiens, UniProt P10276); experiment: co-transfection assay, antagonist activity on RARα; assay type: cell-based; parameters: expressed in transfected cells; host or cells: CV-1 cells (African green monkey kidney); details: CV-1 cells, in presence of known RAR agonist TTNPB; for IC50: read-out: IC50 antagonist potency, RARα
T2 sequence (P10276 1-462): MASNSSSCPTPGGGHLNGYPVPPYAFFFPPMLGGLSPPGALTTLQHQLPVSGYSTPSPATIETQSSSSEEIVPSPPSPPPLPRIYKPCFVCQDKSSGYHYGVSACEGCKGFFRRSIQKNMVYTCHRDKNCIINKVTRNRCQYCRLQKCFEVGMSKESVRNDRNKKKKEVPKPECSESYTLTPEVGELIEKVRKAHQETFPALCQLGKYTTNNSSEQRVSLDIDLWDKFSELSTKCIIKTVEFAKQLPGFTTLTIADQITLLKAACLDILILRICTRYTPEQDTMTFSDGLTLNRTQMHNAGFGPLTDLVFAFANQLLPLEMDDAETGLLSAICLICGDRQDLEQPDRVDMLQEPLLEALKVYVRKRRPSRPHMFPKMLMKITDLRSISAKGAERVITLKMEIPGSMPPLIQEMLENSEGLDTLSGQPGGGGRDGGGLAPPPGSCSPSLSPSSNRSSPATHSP
Excerpt: This assay is described in further detail in U.S. Pat. Nos. 4,981,784 and 5,071,773, the disclosures of which are incorporated herein by reference.
In the co-transfection assay, a cloned cDNA for an IR (e.g., human RARα:, RARβ, RXRγ) under the control of a constitutive promoter (e.g., the SV 40 promoter) is introduced by transfection (a procedure to induce cells to take up foreign genes) into a background cell substantially devoid of endogenous IRs. This introduced gene directs the recipient cells to make the IR protein of interest. A second gene is also introduced (co-transfected) into the same cells in conjunction with the IR gene. This second gene, comprising the cDNA for a reporter protein, such as firefly luciferase (LUC), is controlled by an appropriate hormone responsive promoter containing a hormone response element (HRE). This reporter plasmid functions as a reporter for the transcription-modulating activity of the target IR. Thus, the reporter acts as a surrogate for the products (mRNA then protein) normally expressed by a gene under control of the target receptor and its native hormone.
The co-transfection assay can detect small molecule agonists or antagonists of target IRs. Exposing the transfected cells to an agonist ligand compound increases reporter activity in the transfected cells. This activity can be conveniently measured, e.g., by increasing luciferase production, which reflects compound-dependent, IR-mediated increases in reporter transcription. To detect antagonists, the co-transfection assay is carried out in the presence of a constant concentration of an agonist to the target IR (e.g., all-trans retinoic acid for RARα) known to induce a defined reporter signal. Increasing concentrations of a suspected antagonist will decrease the reporter signal (e.g., luciferase production). The co-transfection assay is therefore useful to detect both agonists and antagonists of specific IRs. Furthermore, it determines not only whether a compound interacts with a particular IR, but whether this interaction mimics (agonizes) or blocks (antagonizes) the effects of the native regulatory molecules on target gene expression, as well as the specificity and strength of this interaction.
CV-1 cells (African green monkey kidney fibroblasts) were cultured in the presence of Dulbecco's Modified Eagle Medium (DMEM) supplemented with 10% charcoal resin-stripped fetal bovine serum then transferred to 96-well microtiter plates one day prior to transfection.
To determine RAR and/or RXR agonist activity of the compounds of the present invention, the CV-1 cells were transiently transfected by calcium phosphate coprecipitation according to the procedure of Berger et al., 41 J. Steroid Biochem. Mol. Biol., 733 (1992) with the following receptor expressing plasmids: pRShRARα: Giguere et al., 330 Nature, 624 (1987); pRShRARβ and pRShRARγ, Ishikawa et al., 4 Mol. Endocrin., 837 (1990); pRShRXRα, Mangelsdorf et al., 345 Nature, 224 (1990); and pRSmRXRβ and pRSmRXRγ, Mangelsdorf et al., 6 Genes & Devel., 329 (1992), the disclosures of which are herein incorporated by reference. Each of these receptor expressing plasmids was co-transfected at a concentration of 5 ng/well, along with a basal reporter plasmid at 100 ng/well, the internal control plasmid pRS-β-Gal at 50 ng/well and filler DNA, pGEM at 45 ng/well.
The basal reporter plasmid D-MTV-LUC (Hollenberg and Evans, 55 Cell, 899 (1988), the disclosure of which is herein incorporated by reference) containing two copies of the TRE-palindromic response element described in Umesono et al., 336 Nature, 262 (1988), the disclosure of which is herein incorporated by reference, was used in transfections for the RARs, and the reporter plasmid CRBPIIFKLUC, which contains an RXRE (retinoid X receptor response element, as described in Mangelsdorf et al., 66 Cell, 555 (1991), the disclosure of which is herein incorporated by reference), was used in transfections for the RXRs.

Structure (SMILES)	Kd (RARβ) [nM]	efficacy of antagonist, % of maximal inhibition, RARα (in parentheses after IC50) (RARα) [%]	IC50 (RARα) [nM]
CCCOc1c(C(C)(C)C)cc(/C(C)=C/C=C/C(C)=C/C(=O)O)cc1C(C)(C)C [Compound 8, 2E, 4E, 6E-[7-(3,5-Di-t-butyl-4-n-propoxyphenyl)-3-methyl]-octa-2,4,6-trienoic acid]	1	90	2
CCCCCOc1c(C(C)(C)C)cc(/C(C)=C/C=C/C(C)=C/C(=O)O)cc1C(C)(C)C [Compound 9, 2E, 4E, 6E-[7-(3,5-Di-t-butyl-4-n-pentoxyphenyl)-3-methyl]-octa-2,4,6-trienoic acid]	5	91	5
CCCCOc1c(C(C)(C)C)cc(/C(C)=C/C=C/C(C)=C/C(=O)O)cc1C(C)(C)C [Compound 7, 2E, 4E, 6E-[7-(3,5-Di-t-butyl-4-n-butoxyphenyl)-3-methyl]-octa-2,4,6-trienoic acid]	5	90	4
C=C(c1ccccc1)c1cc(/C(C)=C/C=C/C(C)=C/C(=O)O)cc(C(C)(C)C)c1 [Compound 17, (2E,4E,6E)-7-[3-t-butyl-5-(1-phenyl-vinyl)-phenyl]-3-methyl-octa-2,4,6-trienoic acid]	3	98	2
